Experimental data from patent publication US20030027218A1, “PEPTIDES PROMOTING THE ACTIVATION OF LATENT TGF-BETA AND METHOD FOR SCREENING TGF-BETA ACTIVITY REGULATORS” (priority 1997, published 2003).
Positions of bridges follow the written chain, without caps; N, C: chain ends. *: point of attachment. Biotin = O=C1N[C@H]2[C@H](CS[C@H]2CCCCC(=O)*)N1

Assays:
[1] = system: bovine aortic endothelial cells (BAEC); assay: Degree of binding of 125I-LLTGF-β to bovine aortic endothelial cells (radioactivity); format: cell-based; settings: test compound 100 μg/ml
[2] = system: bovine capillary endothelial cells (BCEC); assay: Degree of binding of 125I-LLTGF-β to bovine capillary endothelial cells (radioactivity); format: cell-based; settings: for Radioactivity (cpm), n = 4: BCEC, 2 ng/ml 125I-LLTGF-β, 4° C. 3 hours
Description: LLTGF-β isolated and purified from human platelets by the method of Okada, et al. [Journal of Biochemistry, 106, 304 (1989)] was ^125I-labeled according to the chloramine T method [Molecular & Cellular Biology, 2, 599 (1982)] in the following manner.
To 2 μg of LLTGF-β were added 25 μl of 1 M K-phosphate buffer (pH 7.5), 37 MBq of Na-^125I (DuPont NEN) and 10 μl of chloramine-T (0.5 mg/100 μl in 0.05 MK-phos. buffer, Wako Pure Chemical Industries, Ltd.), followed by stirring at room temperature for 40 seconds. After 15 μl of Na2S2O5 (1 mg/100 μl in 0.05 M K-phos. buffer) was added, the mixture was stirred at room temperature for 5 seconds, followed by addition of 100 μl of an aqueous solution of tyrosine (1 mg/ml). The reaction mixture was applied to a Sephadex G25 column and the eluate was taken in 500 μl fractions. Each fraction was subjected to measurement of radioactivity using a γ-counter (ARC-2000, Aloka Co., Ltd.). The fractions containing labeled protein were selected for use in the experiment.
The cells to be used in the experiment were obtained according to the method of Sato, et al. [Journal of Cell Biology, 123, 1249 (1993)]. Bovine vascular smooth muscle cells (BSMC) and porcine vascular smooth muscle cells (PSMC) were isolated from bovine aorta and porcine aorta, respectively, and cultured by the explant method [Journal of Cell Biology, 50, 172 (1971)]. Bovine capillary endothelial cells (BCEC) were isolated from bovine adrenal capillary and cultured. Bovine aortic endothelial cells (BAEC) were isolated from bovine aortic and cultured.
The following procedure was carried out according to the method of Sato, et al. [Journal of Cell Biology, 123, 1249 (1993)].
BSMC, PSMC and BCEC isolated and cultured in the above-described manner were respectively put into 35 mm dishes in an amount of 4×10^4 cells/dish. On the next day, the medium was replaced by Dulbecco's Modified Eagle's Medium (DMEM, Nissui Pharmaceutical Co.) containing 0.1% bovine serum albumin (BSA), followed by incubation for 5 hours. After the cells were washed with 2 ml of phosphate-buffered saline containing 0.1 g/l each of MgCl2.6H2O and CaCl2 [hereinafter sometimes referred to as PBS(+); phosphate-buffered saline containing neither MgCl2.6H2O nor CaCl2 is referred to as PBS (−)], the medium was replaced by 1 ml of ice-cold DMEM containing 0.1% BSA, 2 ng/ml ^125I-LLTGF-β and a test compound, followed by incubation at 4° C. for 3 hours. […] After being washed three times with 2 ml of ice-cold PBS(+), the cells were lysed with 900 μl of 0.5% Triton X-100 (room temperature, 0.5-1 hour), and 800 μl of the lysate was subjected to measurement of radioactivity using a γ-counter.

active TGF-β = assay: Determination of active TGF-β by luciferase assay (BCEC culture supernatant on MLEC carrying PAI-1 promoter luciferase); format: cell-based, bovine; settings: BCEC incubated with test compound 24 hours
Description: The amount of active TGF-β was determined by measuring the luminescence of mink lung epithelial cells (MLEC) carrying the luciferase gene introduced downstream of the PAI-1 promoter by luciferase assay system (Promega) according to the method of Abe, et al. [Analytical Biochemistry, 216, 276 (1994)] as described below.
BCEC were cultured in a 24-well plate to make a confluent layer and then the medium was replaced by DMEM containing 0.1% BSA. After 6 hours, the cells were scraped reticulately with a comb and the remaining cells were washed with PBS (−) , followed by incubation in DMEM containing 0.1% BSA and a test compound for 24 hours. The resulting culture supernatant was taken as a sample. Six hours before the sampling of this culture supernatant, the above-mentioned MLEC were put into wells of a 96-well plate in an amount of 2.8×10^4 cells/well. After the cells were cultured in DMEM containing 10% fetal calf serum (FCS) for 6 hours, the medium was replaced by the above culture supernatant sample, followed by incubation for 16 hours. The cells were washed twice with PBS (−) and then subjected to measurement of active TGF-β concentration by lucuferase assay system.

[3] = system: bovine capillary endothelial cells (BCEC); assay: Migration of bovine vascular endothelial cells (release of active TGF-β from latent TGF-β); format: cell-based; settings: 24 hours, 10 /μg/ml
Description: The following procedure was carried out according to the method of Sato, et al. [Journal of Cell Biology, 123, 1249 (1993)]. were scraped with a razor, the remaining cells were washed with PBS (−), followed by incubation in DMEM containing 0.1% BSA and a test compound. After 24 hours, the number of the cells which migrated in four fileds of a microscope (IX70, Olympus) was counted for each dish. The test compound was added in the same manner as in Test Example 1. The migration of cells was inhibited and the release of active TGF-β from latent TGF-β was promoted by Compounds 3 and 5 to 9 at a concentration of 50 μg/ml.

[4] = test compound 100 μg/ml, vehicle 416.8 ± 89.6
[5] = concentrations indicated in FIG. 6

## Biotinyl-Gly-Arg-Arg-Leu-Lys-Leu-Lys-Val-Glu-Gln-His-Val-Glu-Leu-Tyr-Gln-Lys-Tyr-Ser-Asn-Asn-Ser-Trp-Arg-OH (Biotin-GRRLKLKVEQHVELYQKYSNNSWR-OH; SMILES CC(C)C[C@H](NC(=O)[C@H](CCCNC(=N)N)NC(=O)[C@H](CCCNC(=N)N)NC(=O)CNC(=O)CCCC[C@@H]1SC[C@@H]2NC(=O)N[C@@H]21)C(=O)N[C@@H](CCCCN)C(=O)N[C@@H](CC(C)C)C(=O)N[C@@H](CCCCN)C(=O)N[C@H](C(=O)N[C@@H](CCC(=O)O)C(=O)N[C@@H](CCC(N)=O)C(=O)N[C@@H](Cc1c[nH]cn1)C(=O)N[C@H](C(=O)N[C@@H](CCC(=O)O)C(=O)N[C@@H](CC(C)C)C(=O)N[C@@H](Cc1ccc(O)cc1)C(=O)N[C@@H](CCC(N)=O)C(=O)N[C@@H](CCCCN)C(=O)N[C@@H](Cc1ccc(O)cc1)C(=O)N[C@@H](CO)C(=O)N[C@@H](CC(N)=O)C(=O)N[C@@H](CC(N)=O)C(=O)N[C@@H](CO)C(=O)N[C@@H](Cc1c[nH]c2ccccc12)C(=O)N[C@@H](CCCNC(=N)N)C(=O)O)C(C)C)C(C)C) [Compound 16]
[1]; Table 6, vehicle 792.0 ± 107.0
  Radioactivity (cpm), n = 4: 10495.0 ± 803.0 cpm

## Biotinyl-cyclo(Cys-Val-Leu-Leu-Ser-Arg-Ala-Glu-Leu-Arg-Leu-Leu-Arg-Arg-Leu-Lys-Leu-Lys-Cys)-OH (Biotin-CVLLSRAELRLLRRLKLKC-OH; disulfide 1-19; SMILES CC(C)C[C@@H]1NC(=O)[C@H](CCC(=O)O)NC(=O)[C@H](C)NC(=O)[C@H](CCCNC(=N)N)NC(=O)[C@H](CO)NC(=O)[C@H](CC(C)C)NC(=O)[C@H](CC(C)C)NC(=O)[C@H](C(C)C)NC(=O)[C@@H](NC(=O)CCCC[C@@H]2SC[C@@H]3NC(=O)N[C@@H]32)CSSC[C@@H](C(=O)O)NC(=O)[C@H](CCCCN)NC(=O)[C@H](CC(C)C)NC(=O)[C@H](CCCCN)NC(=O)[C@H](CC(C)C)NC(=O)[C@H](CCCNC(=N)N)NC(=O)[C@H](CCCNC(=N)N)NC(=O)[C@H](CC(C)C)NC(=O)[C@H](CC(C)C)NC(=O)[C@H](CCCNC(=N)N)NC1=O) [Compound 13]
[1]; Table 5, vehicle 1076.5 ± 12.0
  Radioactivity (cpm), n = 4: 4704.0 ± 939.9 cpm

## H-Leu-Lys-Leu-Lys-Val-Glu-Gln-His-Val-Glu-Leu-Tyr-Gln-Lys-Tyr-Ser-Asn-Asn-Ser-Trp-Arg-OH (H-LKLKVEQHVELYQKYSNNSWR-OH) [Compound 15]
[2]; [4]
  Radioactivity (cpm), n = 4: 5621.1 ± 889.2 cpm

## H-Leu-Ser-Thr-Cys-Lys-Thr-Ile-Asp-Met-Glu-Leu-Val-Lys-Arg-Lys-Arg-OH (H-LSTCKTIDMELVKRKR-OH) [Compound 14]
[2]; [4]
  Radioactivity (cpm), n = 4: 3369.9 ± 166.8 cpm

## H-Leu-Ser-Thr-Ser-Lys-Thr-Ile-Asp-Met-Glu-Leu-Val-Lys-Arg-Lys-Arg-Ile-Glu-Ala-Ile-Arg-Gly-Cys-OH (H-LSTSKTIDMELVKRKRIEAIRGC-OH) [Compound 3]
Active TGF-β; [5]
  release of active TGF-β (luciferase assay): Active TGF-β was released

## H-cyclo(Cys-Leu-Ser-Thr-Ser-Lys-Thr-Ile-Asp-Met-Glu-Leu-Val-Lys-Arg-Lys-Arg-Ile-Glu-Ala-Ile-Arg-Gly-Cys)-OH (H-CLSTSKTIDMELVKRKRIEAIRGC-OH; disulfide 1-24; SMILES CC[C@H](C)[C@@H]1NC(=O)[C@H](C)NC(=O)[C@H](CCC(=O)O)NC(=O)[C@H]([C@@H](C)CC)NC(=O)[C@H](CCCNC(=N)N)NC(=O)[C@H](CCCCN)NC(=O)[C@H](CCCNC(=N)N)NC(=O)[C@H](CCCCN)NC(=O)[C@H](C(C)C)NC(=O)[C@H](CC(C)C)NC(=O)[C@H](CCC(=O)O)NC(=O)[C@H](CCSC)NC(=O)[C@H](CC(=O)O)NC(=O)[C@H]([C@@H](C)CC)NC(=O)[C@H]([C@@H](C)O)NC(=O)[C@H](CCCCN)NC(=O)[C@H](CO)NC(=O)[C@H]([C@@H](C)O)NC(=O)[C@H](CO)NC(=O)[C@H](CC(C)C)NC(=O)[C@@H](N)CSSC[C@@H](C(=O)O)NC(=O)CNC(=O)[C@H](CCCNC(=N)N)NC1=O) [Compound 10]
[3]
  migration inhibitory effect: showed the migration inhibitory effect
Active TGF-β; concentration of 10 μg/ml
  release of active TGF-β (luciferase assay): remarkable effect
Active TGF-β; [5]
  release of active TGF-β (luciferase assay): Active TGF-β was released

## H-cyclo(Cys-Val-Leu-Leu-Ser-Arg-Ala-Glu-Leu-Arg-Leu-Leu-Arg-Arg-Leu-Lys-Leu-Lys-Cys)-OH (H-CVLLSRAELRLLRRLKLKC-OH; disulfide 1-19; SMILES CC(C)C[C@@H]1NC(=O)[C@H](CCC(=O)O)NC(=O)[C@H](C)NC(=O)[C@H](CCCNC(=N)N)NC(=O)[C@H](CO)NC(=O)[C@H](CC(C)C)NC(=O)[C@H](CC(C)C)NC(=O)[C@H](C(C)C)NC(=O)[C@@H](N)CSSC[C@@H](C(=O)O)NC(=O)[C@H](CCCCN)NC(=O)[C@H](CC(C)C)NC(=O)[C@H](CCCCN)NC(=O)[C@H](CC(C)C)NC(=O)[C@H](CCCNC(=N)N)NC(=O)[C@H](CCCNC(=N)N)NC(=O)[C@H](CC(C)C)NC(=O)[C@H](CC(C)C)NC(=O)[C@H](CCCNC(=N)N)NC1=O) [Compound 12]
[2]; test compound 30 μg/ml, vehicle 163.1 ± 28.3
  Radioactivity (cpm), n = 4: 2739.9 ± 182.8 cpm
[2]; concentration of 30 μg/ml, BCEC (Table 3)
  degree of binding of TGF-β to cells: increased
